# Experimental data reported in ChEMBL document CHEMBL3232814, “Synthesis and anticancer structure activity relationship investigation of cationic anthraquinone analogs” (2014).
# Experiments:
# Format in all cases: functional
# SK-MEL-28 = assay: Growth inhibition of human SK-MEL-28 cells; settings: for CC50: read-out: LC50 (the source's name)
# [1] = Growth inhibition of human LOXIMVI cells; settings: LOX IMVI; for CC50: read-out: LC50 (the source's name)
# KM12 = assay: Growth inhibition of human KM12 cells; settings: for CC50: read-out: LC50 (the source's name)
# [2] = Growth inhibition of human UACC62 cells; settings: for GI50: UACC-62; for CC50: UACC-62, read-out: LC50 (the source's name)
# SW-620 = assay: Growth inhibition of human SW620 cells; settings: for CC50: read-out: LC50 (the source's name)
# SNB-19 = assay: Growth inhibition of human SNB19 cells
# M14 = assay: Growth inhibition of human M14 cells; settings: for CC50: read-out: LC50 (the source's name)
# HT-29 = assay: Growth inhibition of human HT-29 cells
# COLO 205 = assay: Growth inhibition of human COLO205 cells; settings: for CC50: read-out: LC50 (the source's name)
# MDA-MB-435 = assay: Growth inhibition of human MDA-MB-435 cells; settings: for CC50: read-out: LC50 (the source's name)
# Malme-3M = assay: Growth inhibition of human MALME-3M cells; settings: for CC50: read-out: LC50 (the source's name)
# [3] = Growth inhibition of human EKVX cells
# [4] = Growth inhibition of human SF295 cells; settings: SF-295
# [5] = Growth inhibition of human UACC257 cells; settings: for GI50: UACC-257; for CC50: UACC-257, read-out: LC50 (the source's name)
# NCI-H226 = assay: Growth inhibition of human NCI-H226 cells; settings: for CC50: read-out: LC50 (the source's name)
# SK-MEL-5 = assay: Growth inhibition of human SK-MEL-5 cells
# NCI-H23 = assay: Growth inhibition of human NCI-H23 cells
# NCI-H322M = assay: Growth inhibition of human NCI-H322M cells; settings: for CC50: read-out: LC50 (the source's name)
# [6] = Growth inhibition of human HCC2998 cells; settings: for GI50: HCC 2998; for CC50: HCC 2998, read-out: LC50 (the source's name)
# [7] = Growth inhibition of human SF539 cells; settings: for GI50: SF-539; for CC50: SF-539, read-out: LC50 (the source's name)
# SK-MEL-2 = assay: Growth inhibition of human SK-MEL-2 cells; settings: for CC50: read-out: LC50 (the source's name)
# NCI-H460 = assay: Growth inhibition of human NCI-H460 cells; settings: for CC50: read-out: LC50 (the source's name)
# HOP-62 = assay: Growth inhibition of human HOP62 cells; settings: for CC50: read-out: LC50 (the source's name)
# U-251 = assay: Growth inhibition of human U251 cells
# [8] = Growth inhibition of human HOP92 cells; settings: for GI50: HOP-92; for CC50: HOP-92, read-out: LC50 (the source's name)
# NCI-H522 = assay: Growth inhibition of human NCI-H522 cells; settings: for CC50: read-out: LC50 (the source's name)
# [9] = Growth inhibition of human NCI60 cells assessed as cell growth; set-up: concentration or dose not given beside the values
# [10] = Growth inhibition of human HCT15 cells; settings: for GI50: HCT-15
# HCT-116 = assay: Growth inhibition of human HCT116 cells; settings: for CC50: read-out: LC50 (the source's name)
# SF-268 = assay: Growth inhibition of human SF268 cells; settings: for CC50: read-out: LC50 (the source's name)
# SNB-75 = assay: Growth inhibition of human SNB75 cells; settings: for CC50: read-out: LC50 (the source's name)
# A549 = assay: Growth inhibition of human A549 cells; settings: for CC50: read-out: LC50 (the source's name)
# Staphylococcus aureus = assay: Antimicrobial activity against Staphylococcus aureus ATCC 25923 after 12 to 18 hrs by 2-fold serial dilution method
# [11] = read-out: LC50 (the source's name)
compound,measurement,setting,value
C[n+]1nn(-c2ccc(C(F)(F)F)cc2)c2c1C(=O)c1ccccc1C2=O.O=S(=O)([O-])C(F)(F)F,GI50,SK-MEL-28,12.8 µM
same,CC50,SK-MEL-28,56.5 µM
same,GI50,[1],2.68 µM
same,CC50,[1],36.8 µM
same,GI50,KM12,8.17 µM
same,CC50,KM12,55.9 µM
same,GI50,[2],1.67 µM
same,CC50,[2],30.6 µM
same,GI50,SW-620,14 µM
same,CC50,SW-620,64.3 µM
same,GI50,SNB-19,1.45 µM
same,LC50,SNB-19,6.54 µM
same,GI50,M14,0.54 µM
same,CC50,M14,4.38 µM
same,GI50,HT-29,4.1 µM
same,LC50,HT-29,> 100 µM
same,GI50,COLO 205,1.32 µM
same,CC50,COLO 205,5.73 µM
same,GI50,MDA-MB-435,1.09 µM
same,CC50,MDA-MB-435,7.28 µM
same,GI50,Malme-3M,1.84 µM
same,CC50,Malme-3M,9.35 µM
same,GI50,[3],23.4 µM
same,CC50,[3]; [11],> 100 µM
same,GI50,[4],0.54 µM
same,LC50 (concentration killing 50% of cells),[4],6.74 µM
same,GI50,[5],3.24 µM
same,CC50,[5],43.1 µM
same,GI50,NCI-H226,10.1 µM
same,CC50,NCI-H226,89.4 µM
same,GI50,SK-MEL-5,0.16 µM
same,LC50 (lethal concentration 50),SK-MEL-5,0.57 µM
same,GI50,NCI-H23,0.36 µM
same,CC50,NCI-H23; [11],5.33 µM
same,GI50,NCI-H322M,0.83 µM
same,CC50,NCI-H322M,4.86 µM
same,GI50,[6],1.52 µM
same,CC50,[6],12.9 µM
same,GI50,[7],4.68 µM
same,CC50,[7],46.7 µM
same,GI50,SK-MEL-2,12.5 µM
same,CC50,SK-MEL-2,> 100 µM
same,GI50,NCI-H460,1.4 µM
same,CC50,NCI-H460,7.77 µM
same,GI50,HOP-62,2.12 µM
same,CC50,HOP-62,26 µM
same,GI50,U-251,14 µM
same,LC50,U-251,56.8 µM
same,GI50,[8],> 100 µM
same,CC50,[8],> 100 µM
same,GI50,NCI-H522,14.3 µM
same,CC50,NCI-H522,68.2 µM
same,Activity,[9],58.69%
same,GI50,[10],3.48 µM
same,CC50,"[10]; HCT-15, read-out: LC50 (the source's name)",84 µM
same,GI50,HCT-116,3.42 µM
same,CC50,HCT-116,41.9 µM
same,GI50,SF-268,18.7 µM
same,CC50,SF-268,> 100 µM
same,GI50,SNB-75,1.07 µM
same,CC50,SNB-75,11.2 µM
same,GI50,A549,0.86 µM
same,CC50,A549,> 100 µM
COc1cc(-n2n[n+](C)c3c2C(=O)c2ccccc2C3=O)cc(OC)c1OC.O=S(=O)([O-])C(F)(F)F,GI50,SK-MEL-28,1.37 µM
same,CC50,SK-MEL-28,7.11 µM
same,GI50,[1],1.19 µM
same,CC50,[1],> 100 µM
same,GI50,KM12,2.11 µM
same,CC50,KM12,> 100 µM
same,GI50,[2],1.23 µM
same,CC50,[2],6.12 µM
same,GI50,SW-620,1.99 µM
same,CC50,SW-620,> 100 µM
same,GI50,SNB-19,1.4 µM
same,LC50,SNB-19,6.99 µM
same,GI50,M14,0.48 µM
same,CC50,M14,4.51 µM
same,GI50,HT-29,0.34 µM
same,LC50,HT-29,> 100 µM
same,GI50,COLO 205,0.39 µM
same,CC50,COLO 205,5.05 µM
same,GI50,MDA-MB-435,0.19 µM
same,CC50,MDA-MB-435,0.67 µM
same,GI50,Malme-3M,0.3 µM
same,CC50,Malme-3M,3.26 µM
same,GI50,[4],0.54 µM
same,LC50 (concentration killing 50% of cells),[4],4.67 µM
same,GI50,[5],1.37 µM
same,CC50,[5],5.81 µM
same,GI50,NCI-H226,1.8 µM
same,CC50,NCI-H226,18 µM
same,GI50,SK-MEL-5,0.24 µM
same,LC50 (lethal concentration 50),SK-MEL-5,2.32 µM
same,GI50,NCI-H23,1.94 µM
same,GI50,NCI-H322M,0.4 µM
same,CC50,NCI-H322M,5.27 µM
same,GI50,[6],1.63 µM
same,CC50,[6],8.22 µM
same,GI50,[7],0.4 µM
same,CC50,[7],3.8 µM
same,GI50,SK-MEL-2,1.75 µM
same,CC50,SK-MEL-2,8.09 µM
same,GI50,NCI-H460,0.79 µM
same,CC50,NCI-H460,> 100 µM
same,GI50,HOP-62,1.31 µM
same,CC50,HOP-62,7.22 µM
same,GI50,U-251,1.54 µM
same,LC50,U-251,5.52 µM
same,GI50,[8],1.92 µM
same,CC50,[8],> 100 µM
same,GI50,NCI-H522,1.71 µM
same,CC50,NCI-H522,8.38 µM
same,Activity,[9],-27.06%
same,GI50,[10],1.35 µM
same,GI50,HCT-116,0.46 µM
same,CC50,HCT-116,18 µM
same,GI50,SF-268,0.87 µM
same,CC50,SF-268,> 100 µM
same,GI50,SNB-75,1.43 µM
same,CC50,SNB-75,5.34 µM
same,GI50,A549,1.68 µM
same,CC50,A549,> 100 µM
same,MIC,Staphylococcus aureus,32 µg/mL
C[n+]1nn(-c2ccc(Cl)cc2)c2c1C(=O)c1ccccc1C2=O.O=S(=O)([O-])C(F)(F)F,Activity,[9],101.7%
